{
  "source": "patent US6579469B1",
  "about": "“Cyanoacrylate solutions containing preservatives” (priority 1999, dated 2003)",
  "test": "Compatibility of antimicrobial agent with sterilization procedures",
  "type": "physicochemical",
  "settings": "comparison of Tables II and III",
  "from_the_text": "Optionally, in embodiments of the present invention, the potential agent can be tested for its compatibility with one or more sterilization procedures. This optional screening procedure can also be performed by mixing an appropriate amount of the agent with a desired amount of the monomer composition and any other desired additives, and then subjecting the resultant composition to one or more sterilization procedures. Compatibility of the agent with one or more sterilization procedures is preferred in embodiments of the present invention because many uses of the polymerizable monomer compositions, such as many medical applications, require or prefer sterilized products. Following sterilization, the agent can exert antimicrobial action in killing or preventing growth of microbes that may be introduced into the pre-sterilized monomer compositions.",
  "data": [
    {"molecule": "Cc1ccc(C(C)C)c(O)c1", "note": "[thymol]", "values": [
      {"measurement": "Compatibility with forms of sterilization", "value": "more compatible with one form of sterilization than it is with another form of sterilization"}
    ]}
  ]
}
